Assay results reported in publication PMC4696656, “Insights into the Mechanism of Action of Bactericidal Lipophosphonoxins” (PLoS ONE, 2015).

What was measured:
mice [1] = assay: MTD test in mouse model, administration intraperitoneally; assay type: in vivo, Mice ICR
Description: (§1) The MTD (maximum tolerated dose) in mouse model was carried out by MediTox s.r.o. on a commercial basis. The complete protocol for the MTD testing can be found in S3 Supporting Information.
(§2) For the administration the appropriate amount of the Test item (TI) was dissolved in water (aqua for injection, B. Braun, Germany) and administered to mice either orally (in the volume of 0.5 mL/25 g of body weight) or intraperitoneally (in the volume of 1.0 mL/25 g of body weight).
(§3) S3 and S4 Tables summarize the test system parameters, the number of animals used, and the doses tested. Briefly, for each dose, 3 males are 3 females were used.
(§4) All animals from the study were observed daily for clinical signs, morbidity or mortality during acclimation, 0.5, 4, 6, 24 and 48 hours after administration. Onset, duration and severity of any signs were recorded, and used as criteria for early euthanasia decisions. The clinical observations included: changes in skin, fur, eyes, occurrence of secretion and excretion; autonomic activity (e.g. lacrimation, piloerection); changes in gait and posture; changes in unprovoked behavior, presence of stereotypes or bizarre behavior; response to handling. Ether was used for anesthesia in compliance with the Standard Operating Procedures (SOPs) of MediTox, the European convention for the protection of vertebrate animals used for experimental and other scientific purposes (ETS 123), the Czech Collection of laws No. 246/1992, inclusive of the amendments, on the Protection of animals against cruelty, and Public Notice of the Ministry of Agriculture of the Czech Republic, Collection of laws No. 419/2012 as amended, on keeping and exploitation of experimental animals. MediTox s.r.o. is a holder of the accreditation Certificate for user’s issued by Central Committee for Animal Protection of the Czech Republic.
(§5) All the animals that died during study or survived to their scheduled euthanasia (cervical dislocation under ether anesthesia) 8th day after the administration received a complete post-mortem examination and microscopic examination of organs showing evidence of gross pathology. The cause of death of animals that died during the study before the scheduled euthanasia was mainly venostasis of kidneys and liver.
(§6) S3 Supporting in formation. MTD test in mouse mo d el – a detailed […]
(§7) The MTD (maximum tolerated dose) in mouse model was carried out by MediTox s.r.o. on the […]
(§8) The stud y w as carried ou t accordin g to:
(§9) ICH M3(R2) – The International Conference on Harmonization of Technical Requirements for Registration of Pharm aceuticals for Human Use. Relevant SOPs (Standard operating procedures ) […]
(§10) Facility Management and Animal Husbandry
(§11) Animal car e was in comp liance with th e SOPs of MediTox s.r.o., the Euro pean convention fo r the protection of vertebrate animals used for experimental and other scientific purposes (ETS 123), the Czech Collection of laws No. 246/1992, inclusive of the amendments, on the Protection of animals against cruelty, and Public Notice of the Ministry of Agriculture of the Czech Republic, Collection of laws No. 419/2012 as amended, on keeping and exploitation of experimental animals. MediTox s.r.o. is a holder of the accreditation Certificate for user’s issued by Central Committee for Animal Protection of the Czech Republic.
(§12) Animal Welfare Act Compliance
(§13) The stud y was prepared for this t ype of ex perimen t and approved b y th e Ins titutional Animal Care and Use Committee ( IAC UC) and the Committee for Animal Protection of the Ministry of Health (PP 09/2013) of the Czech Republic. Procedures used in this report were designed to conform to accepted practices and to minimize or avoid causing pain, distress, or discomfort to the animals.
(§14) The number of animals selected for use in this study was considered to be the minimum number necessar y to meet scienti fic and regulator y guideli nes for this t ype of stud y.
(§15) Preparation of the Test item application formulations […]

[2] = Stability at different pH (LC-MS); assay type: physicochemical; settings: pH 0.18, 5.00 and 8.80; 50 μM and 500 μM; room temperature and 37°C; 24 hours
Description: Stability experiments were carried out at two concentrations and three pH values. Concentrations were 500 μmol/l (50 μl of 10 mM stock solution were dissolved in buffers of specific pH to a final volume of 1 ml) and 50 μmol/l (10 μl of stock solution were dissolved in buffers of specific pH to a final volume of 2 ml); pH: 0.18 (0.5 M HCl), 5 (0.1M NH4Ac adjusted with acetic acid), and 8.8 (0.1M NH4Ac adjusted with NaOH). The experiments were conducted at room temperature and 37°C, respectively. Samples were injected onto HPLC machine at different time points to assess the levels of decomposition. Time points: 0.5; 1; 3.5; 24 hrs. HPLC analytical parameters: Method: 0–100% B in 5 min, 100% C in 15 min, hold to 20 min. A = 25 mM NH4Ac, B = 25 mM NH4Ac in 50% MeCN, C = MeCN. Column: PFP, 100 x 4.6 mm, 3 um. Injection: 10 μl for 500 μM. Injection: 50 μl for 50 μM. Detection: PDA 210–400 nm; MS TIC 200–800 m/z.

Caco-2 monolayers = assay: Transepithelial transport in Caco-2 monolayers; assay type: in vitro ADME; settings: 3 h incubation
mice [3] = assay: MTD test in mouse model, administration per os; assay type: in vivo, Mice ICR; settings: for gross pathology findings: males and females
Description: as §1, §2, §3, §4, §5, §6, §7, §8, §9, §10, §11, §12, §13, §14, §15

[4] = D2-IP 500 mg/kg i.p., females, 3 animals
[5] = D2-IP 500 mg/kg i.p., males, 3 animals
[6] = D3-IP 250 mg/kg i.p., females, 3 animals
[7] = D3-IP 250 mg/kg i.p., males, 3 animals
[8] = D4-IP 80 mg/kg i.p., females, 3 animals
[9] = D4-IP 80 mg/kg i.p., males, 3 animals
[10] = D5-IP 50 mg/kg i.p., females, 3 animals
[11] = D5-IP 50 mg/kg i.p., males, 3 animals

CCCCCCCCCCCCCCCCOP(=O)(CCN1C[C@@H](O)[C@H](O)C1)OC[C@H]1O[C@@H](n2ccc(=O)[nH]c2=O)[C@H](O)[C@@H]1O (stereo partly drawn) [DR5026]
gross pathology findings (mice [1]; D1-IP, 5 mg/kg i.p., males and females): NO FINDINGS | abdominal cavity red liquid, number of animals with finding (mice [1]; [4]): 2 | kidneys venostasis, number of animals with finding (mice [1]; [4]): 2 | liver venostasis, number of animals with finding (mice [1]; [4]): 2 | lungs focal hemorrhage, number of animals with finding (mice [1]; [4]): 1 | abdominal cavity red liquid, number of animals with finding (mice [1]; [5]): 2 | kidneys venostasis, number of animals with finding (mice [1]; [5]): 2 | liver venostasis, number of animals with finding (mice [1]; [5]): 2 | abdominal cavity red liquid, number of animals with finding (mice [1]; [6]): 3 | kidneys venostasis, number of animals with finding (mice [1]; [6]): 3 | liver venostasis, number of animals with finding (mice [1]; [6]): 3 | thoracic cavity red liquid, number of animals with finding (mice [1]; [6]): 1 | abdominal cavity red liquid, number of animals with finding (mice [1]; [7]): 3 | kidneys venostasis, number of animals with finding (mice [1]; [7]): 3 | liver venostasis, number of animals with finding (mice [1]; [7]): 3 | lungs venostasis, number of animals with finding (mice [1]; [7]): 1 | thoracic cavity red liquid, number of animals with finding (mice [1]; [7]): 1 | liver enlarged, number of animals with finding (mice [1]; [8]): 3 | liver rounded edges, number of animals with finding (mice [1]; [8]): 3 | abdominal cavity red liquid, number of animals with finding (mice [1]; [9]): 1 | kidneys venostasis, number of animals with finding (mice [1]; [9]): 1 | liver enlarged, number of animals with finding (mice [1]; [9]): 2 | liver rounded edges, number of animals with finding (mice [1]; [9]): 2 | liver venostasis, number of animals with finding (mice [1]; [9]): 1 | liver enlarged, number of animals with finding (mice [1]; [10]): 3 | liver rounded edges, number of animals with finding (mice [1]; [10]): 3 | spleen peritoneal adhesions, number of animals with finding (mice [1]; [10]): 1 | liver enlarged, number of animals with finding (mice [1]; [11]): 3 | liver peritoneal adhesions, number of animals with finding (mice [1]; [11]): 2 | liver rounded edges, number of animals with finding (mice [1]; [11]): 3 | spleen peritoneal adhesions, number of animals with finding (mice [1]; [11]): 2 | safe limit (maximal tolerated dose) (mice [1]; administered peritoneally): 50 mg/kg | clinical signs (mice [1]; i.p. 80 mg/kg): all the monitored animals were slightly stolid 5 min after the administration | severe clinical signs / moribund animals (mice [1]; i.p. 80 mg/kg, 24-26 hours): In one male a disturbance of locomotion was observed | clinical signs (mice [1]; i.p. 250 mg/kg and 500 mg/kg): exacerbated the symptoms | mortality (mice [1]; i.p. 500 mg/kg, several hours after administration, 3 males + 3 females): death of 2 males and 2 females | signs of toxicity (mice [1]; i.p. 5 and 50 mg/kg): did not cause any signs of toxicity | stability (decomposition by LC-MS) [2]: no detectable decomposition | compound in the Caco-2 cell lysate (Caco-2 monolayers): No compound was detected | compound at the basolateral (acceptor) side (Caco-2 monolayers; apical to basolateral): No compound was detected | gross pathology findings (mice [3]; D1-PO, 5 mg/kg p.o.): NO FINDINGS | gross pathology findings (mice [3]; D2-PO, 500 mg/kg p.o.): NO FINDINGS | gross pathology findings (mice [3]; D3-PO, 1000 mg/kg p.o.): NO FINDINGS | gross pathology findings (mice [3]; D4-PO, 1500 mg/kg p.o.): NO FINDINGS | gross pathology findings (mice [3]; D5-PO, 2000 mg/kg p.o.): NO FINDINGS | signs of toxicity (mice [3]; per os 5, 500, 1000, 1500 and 2000 mg/kg, single dose): did not cause any signs of toxicity | gross pathology changes (mice [3]; per os 5-2000 mg/kg): no gross pathology changes were detected | highest peroral dose without any signs of toxicity (maximal tolerated dose) (mice [3]; peroral, single dose): 2000 mg/kg
